Here are results for eight molecules from PubChem BioAssay (NCI).

Each structure is given as a SMILES string. Where “and” joins values, the source holds several entries; their conditions need not be identical. Equal entries are not always repeated.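 In this assay, cells in 96-well plates receive the compound at five concentrations for 48 hours. Endpoints are linearly interpolated between the surrounding concentrations. Abbreviation: GI50, concentration required for 50% inhibition of growth. TGI marks complete inhibition of growth.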 Where a SMILES comes first, the peptide text is derived from it. [ ]: non-standard residue; d: D form. 2Nal = N[CH](Cc1ccc2ccccc2c1)C(=O)O

Among the test systems are 786-0 renal; CCRF-CEM leukemia; MALME-3M melanoma; MOLT-4 leukemia; OVCAR-4 ovarian; OVCAR-5 ovarian; OVCAR-8 ovarian; RXF 393 renal; SK-MEL-28 melanoma; SNB-75 CNS.
Common to all, as to assay: NCI tumour cell line growth inhibition, 48 h

`CCOC(=O)c1cc(C(=O)c2cc(OC)cc(OC)c2)n2ncccc12`: the GI50 is 11.4 µM in the assay with 786-0 renal; 2.51 µM in the assay with CCRF-CEM leukemia; > 100 µM in the assay with MALME-3M melanoma; 2.63 µM in the assay on MOLT-4 leukemia; 17 µM in the assay with OVCAR-4 ovarian; 43.5 µM in the assay on OVCAR-5 ovarian. Also, the GI50 in the assay on OVCAR-8 ovarian was 3.77 µM; in the assay on RXF 393 renal, 1.64 µM; with SK-MEL-28 melanoma, 7.36 µM; in the assay with SNB-75 CNS it was 0.399 µM. For the same molecule, the TGI in the assay with 786-0 renal, with CCRF-CEM leukemia, in the assay with MALME-3M melanoma, in the assay on MOLT-4 leukemia, in the assay with OVCAR-4 ovarian and in the assay with OVCAR-5 ovarian was > 100 µM in each case. The TGI is > 100 µM in the assay with OVCAR-8 ovarian, 14.2 µM in the assay on RXF 393 renal, > 100 µM in the assay on SK-MEL-28 melanoma and > 100 µM with SNB-75 CNS.
Take `COC(=O)c1c2c(c(C)[n+]([O-])c1C)C(=O)C(NCc1ccc(F)c(Cl)c1)=CC2=O`: the GI50 is 3.1 µM in the assay with 786-0 renal; 3.03 µM in the assay on CCRF-CEM leukemia; 0.214 µM in the assay with MALME-3M melanoma; 2.42 µM in the assay with MOLT-4 leukemia; 0.652 µM in the assay with OVCAR-4 ovarian; 1.66 µM in the assay on OVCAR-5 ovarian. Moreover, the GI50 with OVCAR-8 ovarian is 2.38 µM; in the assay with RXF 393 renal, 1.73 µM; in the assay on SK-MEL-28 melanoma it was 3.03 µM; in the assay with SNB-75 CNS, 2.74 µM. The TGI in the assay with 786-0 renal was 22.7 µM; in the assay on CCRF-CEM leukemia, 22.8 µM; in the assay on MALME-3M melanoma it was 0.658 µM; with MOLT-4 leukemia, 7.2 µM; with OVCAR-4 ovarian it was 2.07 µM; in the assay with OVCAR-5 ovarian it was 3.82 µM. Moreover, the TGI with OVCAR-8 ovarian is 13.9 µM; in the assay on RXF 393 renal, 4.05 µM; in the assay on SK-MEL-28 melanoma, 13.2 µM; with SNB-75 CNS it was 9.32 µM.
As for `O=C1/C(=C\c2ccccc2)c2ccccc2N1Cc1ccccc1`, the TGI with 786-0 renal stood at 23 µM; in the assay on CCRF-CEM leukemia it was 12.6 µM; with MALME-3M melanoma, 12.8 µM; in the assay on MOLT-4 leukemia, 5.4 µM; in the assay on OVCAR-4 ovarian, 27.5 µM; in the assay with OVCAR-5 ovarian it was 15.2 µM. Moreover, the TGI in the assay on OVCAR-8 ovarian was 19 µM; in the assay on RXF 393 renal, 16.1 µM; in the assay on SK-MEL-28 melanoma, 15.7 µM; with SNB-75 CNS it was 22.8 µM.
Take `C[C@]12CC[C@@H]3c4ccc(O)cc4CC[C@H]3[C@@H]1CC[C@@H]2NS(=O)(=O)c1cccc(Br)c1`: the GI50 was 3.25 µM with 786-0 renal; 3.06 µM in the assay on CCRF-CEM leukemia; 2.27 µM with MALME-3M melanoma; 2.59 µM in the assay with MOLT-4 leukemia; 2.45 µM in the assay on OVCAR-4 ovarian; 4.09 µM in the assay with OVCAR-5 ovarian. In addition, the GI50 is 3.98 µM in the assay with OVCAR-8 ovarian, 2.15 µM in the assay on RXF 393 renal, 4.21 µM in the assay on SK-MEL-28 melanoma and 2.9 µM in the assay on SNB-75 CNS. Further, the TGI is 10.4 µM in the assay on 786-0 renal; 20.3 µM in the assay on CCRF-CEM leukemia; 7.58 µM in the assay with MALME-3M melanoma; 12.7 µM in the assay on MOLT-4 leukemia; 9.98 µM with OVCAR-4 ovarian; 16.3 µM in the assay on OVCAR-5 ovarian. Besides, the TGI turned out to be 16.7 µM in the assay on OVCAR-8 ovarian, 6.2 µM in the assay on RXF 393 renal, 15.9 µM in the assay with SK-MEL-28 melanoma and 13.5 µM in the assay with SNB-75 CNS.
As to `O=C=Nc1ccc(Cc2ccc(N=C=O)cc2)cc1` (tested in a mixture with another compound), the GI50 is > 25 µg/mL in the assay on 786-0 renal; > 25 µg/mL in the assay on CCRF-CEM leukemia; > 25 µg/mL in the assay with MALME-3M melanoma; 1.33 µg/mL with MOLT-4 leukemia; > 25 µg/mL in the assay on OVCAR-4 ovarian; > 25 µg/mL in the assay on OVCAR-5 ovarian. The GI50 in the assay on OVCAR-8 ovarian, in the assay on RXF 393 renal, in the assay with SK-MEL-28 melanoma and in the assay with SNB-75 CNS was > 25 µg/mL each time. Further, the TGI in the assay with 786-0 renal, in the assay on CCRF-CEM leukemia, in the assay with MALME-3M melanoma, in the assay with MOLT-4 leukemia, with OVCAR-4 ovarian and with OVCAR-5 ovarian was > 25 µg/mL in each case. Moreover, the TGI with OVCAR-8 ovarian, in the assay with RXF 393 renal, in the assay with SK-MEL-28 melanoma and in the assay with SNB-75 CNS was > 25 µg/mL each time.
Regarding `CCN(C)S(=O)(=O)Nc1cccc(Nc2ncnc3cc(NC(=O)CCl)ccc23)c1Cl`, the GI50 in the assay on 786-0 renal is 0.973 µM; in the assay on CCRF-CEM leukemia, 0.656 µM; in the assay on MALME-3M melanoma it was 1.42 µM; in the assay with MOLT-4 leukemia, 0.926 µM; with OVCAR-4 ovarian, 3.53 µM; in the assay on OVCAR-5 ovarian it was 2.62 µM. In addition, the GI50 in the assay on OVCAR-8 ovarian is 5.18 µM; in the assay on RXF 393 renal it was 3.57 µM; with SK-MEL-28 melanoma, 3.92 µM; with SNB-75 CNS, 3.36 µM. Also, the TGI stood at 4.04 µM in the assay on 786-0 renal; 3.77 µM in the assay on CCRF-CEM leukemia; 5.62 µM with MALME-3M melanoma; 8.83 µM in the assay with MOLT-4 leukemia; 8.75 µM with OVCAR-4 ovarian; 6.76 µM in the assay with OVCAR-5 ovarian. Moreover, the TGI was found to be 17.6 µM with OVCAR-8 ovarian, 7.42 µM in the assay with RXF 393 renal, 15.8 µM in the assay with SK-MEL-28 melanoma and 7.67 µM in the assay on SNB-75 CNS.
Take `CC(NC(=O)C(N)Cc1ccccc1)C(=O)NC(Cc1ccc(O)cc1)C(=O)NC(Cc1c[nH]c2ccccc12)C(=O)NC(CCCCN)C(=O)NC(C(=O)NC(C)C(=O)NC(Cc1ccc2ccccc2c1)C(N)=O)C(C)C` (configuration not stated) (H-FAYWKVA[2Nal]-NH2; configuration not given here): the GI50 in the assay on 786-0 renal was 24.8 µM; in the assay on CCRF-CEM leukemia, 16 µM; with MOLT-4 leukemia it was 16.7 µM; in the assay on OVCAR-4 ovarian it was 27.2 µM; with OVCAR-8 ovarian it was 37.2 µM; in the assay with RXF 393 renal, 17.7 µM. Also, in the assay on SK-MEL-28 melanoma, the GI50 was 53.4 µM. Also, the TGI in the assay with 786-0 renal was > 12.5 µM and 65.1 µM; in the assay with CCRF-CEM leukemia it was > 12.5 µM and 29.4 µM; with MALME-3M melanoma, > 12.5 µM; in the assay on MOLT-4 leukemia it was 32 µM; in the assay with OVCAR-4 ovarian it was > 12.5 µM and 84.3 µM; in the assay with OVCAR-5 ovarian, > 12.5 µM. The TGI in the assay on OVCAR-8 ovarian was > 100 µM; in the assay on RXF 393 renal it was > 12.5 µM and 36.5 µM; in the assay on SK-MEL-28 melanoma, > 100 µM; in the assay on SNB-75 CNS it was 71.8 µM.
As to `CCOC(=O)c1c(C)c2c(n1C)CSc1cc(S(=O)(=O)c3ccccc3)c(=O)[nH]c1-2`, the GI50 in the assay on 786-0 renal is 35.1 µM; in the assay with CCRF-CEM leukemia it was 27.5 µM; with MALME-3M melanoma, 35.1 µM; in the assay with MOLT-4 leukemia it was 11.2 µM; in the assay on OVCAR-4 ovarian, 27.8 µM; in the assay on OVCAR-5 ovarian, 45.6 µM. Also, the GI50 with OVCAR-8 ovarian was 36.7 µM; in the assay on RXF 393 renal, 44.4 µM; in the assay with SK-MEL-28 melanoma, 37.2 µM; in the assay with SNB-75 CNS, 42.7 µM. The TGI in the assay with 786-0 renal is > 100 µM; with CCRF-CEM leukemia it was > 100 µM; in the assay on MALME-3M melanoma, > 100 µM; in the assay with MOLT-4 leukemia it was 98.6 µM; in the assay with OVCAR-4 ovarian it was > 100 µM; in the assay on OVCAR-5 ovarian, > 100 µM. For the same molecule, the TGI with OVCAR-8 ovarian, in the assay on RXF 393 renal, in the assay with SK-MEL-28 melanoma and with SNB-75 CNS was > 100 µM in each case.
